What was measured:
Format in all cases: cell-based
MDA-MB-453 cells [1] = assay: Inhibition of proliferation of MDA-MB-453 cells by single agents (CCK-8 or CTG); conditions: co-incubation for 7-10 days; for inhibitory effect on the proliferation of MDA-MB-453 cells (in words): single agent
Experimental: Triple negative breast cancer MDA-MB-453 cells in logarithmic growth stage were inoculated into a 96-well plate at a concentration of 4×10^3 cells/well, and then incubated in an incubator at 37° C., 5% CO2, and saturated humidity for 24 h or 48 h. To the negative control well, was added RPMI 1640 cell medium containing 10% fetal bovine serum in the same volume as the drug. After cultured for 24 h or 48 h, to the 96-well plate, were added AR PROTACs compounds 162, 177, 230, 259, 279, 281, 282, 325, 357, 400, ARV-110, ARV-766 and AR inhibitor HC-1119, respectively. The concentrations of compounds 177, 230, 259, 279, 281, 282, 325, 357, 400, ARV-110, and ARV-766 are 0 μM, 0.002 μM, 0.005 μM, 0.014 μM, 0.041 μM, 0.123 μM, 0.370 μM, 1.111μM, 3.333 μM or 10 μM; while the concentrations of HC-1119 are 0 μM, 1.23 μM, 3.70 μM, 11.11 μM, 33.33 μM or 100 μM.
(§1) After addition of the drugs and co-incubation for 7-10 days, 10 μL of CCK-8 was added to each well, and then the plate was further cultured for 2 h. The absorbance value (OD) of each well was measured using a microplate reader at a wavelength of 450 nm. The survival rate was calculated using Prism software, the relative survival rate=(OD value of drug well/OD value of control well)×100%. Alternatively, 100 μL of medium was removed from each well, and then 50 μL of CTG was added. The plate was shaken in the dark for 2 min, allowed to stand for 10 min, and then measured using a microplate reader in Luminescence mode. Prism software was used to calculate the survival rate, the relative survival rate=(the RLU value of drug well/the RLU value of control well)×100%.

MDA-MB-453 cells [2] = assay: Proliferation of MDA-MB-453 cells, AR PROTAC in combination with PI3K inhibitor Alpelisib (Combination Index); conditions: molar ratio of compound to Alpelisib 1:27-9:1; 7 days; synergistic when CI<1
Experimental: Triple negative breast cancer MDA-MB-453 cells in logarithmic growth stage were inoculated into a 96-well plate at a concentration of 4×10^3 cells/well, and then incubated in an incubator at 37° C., 5% CO2, and saturated humidity for 24 h. To the negative control wells, were added RPMI 1640 cell culture medium containing 10% fetal bovine serum in the same volume as the drug. After cultured for 24 h, to the 96-well plate, were sequentially added AR PROTACs compounds 279, 281, 282, ARV-110, ARV-766 and PI3K inhibitor Alpelisib, respectively.
as §1, with “7” for “7-10”

MDA-MB-453 cells [3] = assay: Proliferation of MDA-MB-453 cells, AR PROTAC in combination with PI3K inhibitor Duvelisib (Combination Index); conditions: molar ratio of compound to Duvelisib 1:30-1:1.111; 7-10 days; synergistic when CI<1
Experimental: Triple negative breast cancer MDA-MB-453 cells in logarithmic growth stage were inoculated into a 96-well plate at a concentration of 4×10^3 cells/well, and then incubated in an incubator at 37° C., 5% CO2, and saturated humidity for 24 h. To the negative control wells, were added RPMI 1640 cell culture medium containing 10% fetal bovine serum in the same volume as the drug. After cultured for 24 h, to the 96-well plate, were sequentially added AR PROTACs compounds 279, 281, 282, ARV-110 and PI3K inhibitor Duvelisib, respectively.
as §1, with “adding” for “addition of”, “co-incubating” for “co-incubation”

MDA-MB-453 cells [4] = assay: Proliferation of MDA-MB-453 cells, AR PROTAC in combination with PI3K inhibitor Idelalisib (Combination Index); conditions: molar ratio of compound to Idelalisib 1:270-1:3.333; 7-10 days; synergistic when CI<1
Experimental: Triple negative breast cancer MDA-MB-453 cells in logarithmic growth stage were inoculated into a 96-well plate at a concentration of 4×10^3 cells/well, and then incubated in an incubator at 37° C., 5% CO2, and saturated humidity for 24 h. To the negative control wells, were added RPMI 1640 cell culture medium containing 10% fetal bovine serum in the same volume as the drug. After cultured for 24 h, to the 96-well plate, were sequentially added AR PROTACs compounds 279, 281, 282, ARV-110, ARV-766 and PI3K inhibitor Idelalisib, respectively.
as §1, with “adding” for “addition of”, “co-incubating” for “co-incubation”

MDA-MB-453 cells [5] = assay: Proliferation of MDA-MB-453 cells, AR PROTAC in combination with chemotherapeutic drug Paclitaxel (Combination Index); conditions: molar ratio of compound to Paclitaxel 20:1-5000:1; 7 days; synergistic when CI<1
Experimental: Triple negative breast cancer MDA-MB-453 cells in logarithmic growth stage were inoculated into a 96-well plate at a concentration of 4×10^3 cells/well, and then incubated in an incubator at 37° C., 5% CO2, and saturated humidity for 24 h. To the negative control wells, were added RPMI 1640 cell culture medium containing 10% fetal bovine serum in the same volume as the drug. After cultured for 24 h, to the 96-well plate, were sequentially added AR PROTACs compounds 279, 281, 282, ARV-110 and chemotherapeutic drug Paclitaxel, respectively.
as §1, with “adding” for “addition of”, “co-incubating” for “co-incubation”, “7” for “7-10”

Row | Compound | inhibitory effect on the proliferation of MDA-MB-453 cells (in words) (MDA-MB-453 cells [1]) | effect of drug combination with Alpelisib on inhibiting the proliferation of MDA-MB-453 cells (MDA-MB-453 cells [2]) | effect of drug combination with Duvelisib on inhibiting the proliferation of MDA-MB-453 cells (MDA-MB-453 cells [3]) | effect of drug combination with Idelalisib on inhibiting the proliferation of MDA-MB-453 cells (MDA-MB-453 cells [4]) | effect of drug combination with Paclitaxel on inhibiting the proliferation of MDA-MB-453 cells (MDA-MB-453 cells [5]) | IC50 (MDA-MB-453 cells [1]; Homo sapiens, MDA-MB-453, CCK-8 or CTG readout, read-out: IC50 values against MDA-MB-453 cells) [nM]
1 | [2H]C([2H])([2H])NC(=O)c1ccc(N2C(=S)N(c3ccc(C#N)c(C(F)(F)F)c3)C(=O)C2(C)C)cc1F [HC-1119, reference compound] | weak inhibitory effect | – | – | – | – | –
2 | N#Cc1ccc(O[C@H]2CC[C@H](NC(=O)c3ccc(N4CC5(CCN(CC6CCN(c7ccc8c(c7)C(=O)N(C7CCC(=O)NC7=O)C8=O)CC6)CC5)C4)nn3)CC2)cc1Cl (some centres unmarked) [Compound 282] | inhibit the proliferation of MDA-MB-453 cells to varying degrees | synergistic effect | synergistic effect | synergistic effect | synergistic effect | –
3 | COc1cc(O[C@H]2C(C)(C)[C@H](N3Cc4nc(C#C[C@H]5CC[C@H](N6CCN(c7ccc8c(c7)C(=O)N(C7CCC(=O)NC7=O)C8=O)CC6)CC5)ccc4C3=O)C2(C)C)ccc1C#N (some centres unmarked) [Compound 400] | inhibit the proliferation of MDA-MB-453 cells to varying degrees | – | – | – | – | –
4 | COc1cc(O[C@H]2C(C)(C)[C@H](NC(=O)c3ccc(N4CCC(CN5CCN(c6ccc(C(=O)N[C@H]7CCC(=O)NC7=O)c(F)c6)CC5)CC4)cc3)C2(C)C)ccc1C#N [ARV-766, reference compound] | inhibit the proliferation of MDA-MB-453 cells to varying degrees | synergistic effect | – | synergistic effect | – | –
5 | CC1(C)[C@H](Oc2ccc(C#N)c(Cl)c2)C(C)(C)[C@H]1N1Cc2nc(C#C[C@H]3CC[C@H](N4CCN(c5ccc6c(c5)C(=O)N(C5CCC(=O)NC5=O)C6=O)CC4)CC3)ccc2C1=O (some centres unmarked) [Compound 325] | inhibit the proliferation of MDA-MB-453 cells to varying degrees | – | – | – | – | –
6 | N#Cc1ccc(O[C@H]2CC[C@H](NC(=O)c3cnc(N4C[C@@H]5[C@@H](CN6CCN(c7ccc8c(c7)C(=O)N(C7CCC(=O)NC7=O)C8=O)CC6)[C@@H]5C4)cn3)CC2)cc1Cl (some centres unmarked) [Compound 177] | inhibit the proliferation of MDA-MB-453 cells to varying degrees | – | – | – | – | –
7 | N#Cc1ccc(O[C@H]2CC[C@H](NC(=O)c3ccc(N4CC5CN(CC6CCN(c7cc8c(cc7F)C(=O)N(C7CCC(=O)NC7=O)C8=O)CC6)CC5C4)nn3)CC2)cc1Cl (some centres unmarked) [Compound 259] | inhibit the proliferation of MDA-MB-453 cells to varying degrees | – | – | – | – | –
8 | CC1(C)[C@H](Oc2ccc(C#N)c(Cl)c2)C(C)(C)[C@H]1N1Cc2nc(C#C[C@H]3C[C@H](N4CCN(c5cc6c(cc5F)C(=O)N(C5CCC(=O)NC5=O)C6=O)CC4)C3)ccc2C1=O (some centres unmarked) [Compound 357] | inhibit the proliferation of MDA-MB-453 cells to varying degrees | – | – | – | – | ≤ 2000
9 | N#Cc1ccc(O[C@H]2CC[C@H](NC(=O)c3ccc(N4CCC(N5CCC6(CC5)CN(c5ccc7c(c5)C(=O)N(C5CCC(=O)NC5=O)C7=O)C6)CC4)nn3)CC2)cc1Cl (some centres unmarked) [Compound 281] | inhibit the proliferation of MDA-MB-453 cells to varying degrees | synergistic effect | synergistic effect | synergistic effect | synergistic effect | –
10 | N#Cc1ccc(O[C@H]2CC[C@H](NC(=O)c3ccc(N4CCC(CN5CCC6(CC5)CN(c5ccc7c(c5)C(=O)N(C5CCC(=O)NC5=O)C7=O)C6)CC4)nn3)CC2)cc1Cl (some centres unmarked) [Compound 230] | inhibit the proliferation of MDA-MB-453 cells to varying degrees | – | – | – | – | –
11 | N#Cc1ccc(O[C@H]2CC[C@H](NC(=O)c3ccc(N4CCC(CN5CCN(c6cc7c(cc6F)C(=O)N(C6CCC(=O)NC6=O)C7=O)CC5)CC4)nn3)CC2)cc1Cl (some centres unmarked) [ARV-110, reference compound] | inhibit the proliferation of MDA-MB-453 cells to varying degrees | synergistic effect | synergistic effect | synergistic effect | synergistic effect | –
